One assay addresses full-length human PLD2 (Homo sapiens (Human), UniProt O14939). The assay is described as follows: Evaluation of human PLD2 enzyme inhibitory activity (Amplex Red / choline oxidase fluorescence). In kind it is biochemical. To be noted: full-length human PLD2 enzyme; read-out: PLD2 IC50. In short, it runs like this:
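Enzyme was N-terminal FLAG-tagged full-length human PLD2 (1-933), expressed in Expi293F cells and anti-FLAG purified. Compound (5% DMSO final) was incubated with enzyme (6 nmol/L solution) and 1,2-diheptanoyl-PC (6 mmol/L solution) in HEPES pH 7.5, KCl, EGTA, MgCl2, NP-40, BSA buffer for 60 min at room temperature. Choline was detected with Amplex Red/choline oxidase/HRP.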

The target in another assay is full-length human PLD1 (Homo sapiens (Human), UniProt Q13393). The assay is described as follows: Evaluation of human PLD1 enzyme inhibitory activity (Amplex Red / choline oxidase fluorescence). It is filed as biochemical. To be noted: full-length human PLD1 enzyme; read-out: PLD1 IC50. The method in brief: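 N-terminally FLAG-tagged full-length human PLD1 (1-1036), expressed in Expi293F and FLAG-purified, incubated with compound (5% DMSO final) and 1,2-diheptanoyl-sn-glycero-3-phosphocholine for 60 min at room temperature in HEPES pH 7.5 buffer. Released choline detected by Amplex Red/choline oxidase/HRP fluorescence.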
Sequence of full-length human PLD1 (Q13393 other isoform, or with tags, fused parts or gaps): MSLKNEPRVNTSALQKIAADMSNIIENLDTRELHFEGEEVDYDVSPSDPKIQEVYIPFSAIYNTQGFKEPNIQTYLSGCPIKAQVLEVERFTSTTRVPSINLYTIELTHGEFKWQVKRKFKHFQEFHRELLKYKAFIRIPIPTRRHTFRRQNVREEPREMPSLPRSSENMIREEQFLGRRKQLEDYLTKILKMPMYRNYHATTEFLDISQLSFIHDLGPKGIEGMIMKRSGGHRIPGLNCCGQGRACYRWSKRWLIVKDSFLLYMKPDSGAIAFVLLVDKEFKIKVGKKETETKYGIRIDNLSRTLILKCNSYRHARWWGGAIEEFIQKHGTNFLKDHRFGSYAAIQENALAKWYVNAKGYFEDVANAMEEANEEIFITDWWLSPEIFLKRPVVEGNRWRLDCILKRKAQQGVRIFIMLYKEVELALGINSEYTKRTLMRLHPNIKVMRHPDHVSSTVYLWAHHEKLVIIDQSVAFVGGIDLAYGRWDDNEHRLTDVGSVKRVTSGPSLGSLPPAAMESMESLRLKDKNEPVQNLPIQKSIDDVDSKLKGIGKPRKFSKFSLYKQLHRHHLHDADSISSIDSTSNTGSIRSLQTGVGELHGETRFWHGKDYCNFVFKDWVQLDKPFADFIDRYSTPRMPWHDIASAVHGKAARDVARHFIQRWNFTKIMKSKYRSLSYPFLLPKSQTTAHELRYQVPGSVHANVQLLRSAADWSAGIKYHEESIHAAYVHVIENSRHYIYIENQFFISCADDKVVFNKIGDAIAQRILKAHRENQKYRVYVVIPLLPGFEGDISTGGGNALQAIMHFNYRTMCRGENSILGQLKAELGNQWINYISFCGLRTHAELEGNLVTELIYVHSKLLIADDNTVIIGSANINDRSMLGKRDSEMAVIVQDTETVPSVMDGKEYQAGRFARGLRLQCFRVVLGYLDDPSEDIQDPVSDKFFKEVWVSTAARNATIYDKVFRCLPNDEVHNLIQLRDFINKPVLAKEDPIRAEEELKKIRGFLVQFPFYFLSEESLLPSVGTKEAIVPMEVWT

Sequence of full-length human PLD2 (O14939 whole entry): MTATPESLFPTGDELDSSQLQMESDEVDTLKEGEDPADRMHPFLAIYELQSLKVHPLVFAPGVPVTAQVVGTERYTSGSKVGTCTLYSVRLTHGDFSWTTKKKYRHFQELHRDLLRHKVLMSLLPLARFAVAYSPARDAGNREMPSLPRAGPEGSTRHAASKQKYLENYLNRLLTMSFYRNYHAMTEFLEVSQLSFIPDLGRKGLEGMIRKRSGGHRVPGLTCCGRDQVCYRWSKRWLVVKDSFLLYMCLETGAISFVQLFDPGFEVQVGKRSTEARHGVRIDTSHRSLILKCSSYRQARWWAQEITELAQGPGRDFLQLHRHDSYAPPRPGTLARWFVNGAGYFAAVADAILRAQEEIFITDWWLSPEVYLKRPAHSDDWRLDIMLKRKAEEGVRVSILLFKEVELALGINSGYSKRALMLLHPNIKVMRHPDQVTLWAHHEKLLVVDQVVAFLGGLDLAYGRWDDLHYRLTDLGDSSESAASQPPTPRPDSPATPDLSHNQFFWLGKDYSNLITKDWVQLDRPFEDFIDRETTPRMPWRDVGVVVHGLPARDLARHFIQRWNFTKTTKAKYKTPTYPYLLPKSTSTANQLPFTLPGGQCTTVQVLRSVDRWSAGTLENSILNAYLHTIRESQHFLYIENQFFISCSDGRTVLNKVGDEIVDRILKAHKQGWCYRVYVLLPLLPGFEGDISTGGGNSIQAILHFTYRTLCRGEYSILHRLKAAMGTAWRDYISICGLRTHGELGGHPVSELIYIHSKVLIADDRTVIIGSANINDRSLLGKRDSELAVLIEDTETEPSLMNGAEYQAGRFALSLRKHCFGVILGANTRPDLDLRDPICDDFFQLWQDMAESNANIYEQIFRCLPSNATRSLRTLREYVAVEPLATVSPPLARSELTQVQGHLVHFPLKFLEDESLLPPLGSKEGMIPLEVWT

For the compound `CNC(=O)C(=O)N[C@@H](C)C[C@H]1CC[C@]2(CC1)OC(=O)NN=C2c1cnc(N2C[C@H]3C[C@@H]2CO3)cc1Cl` [Example 243], the IC50 was less than 10 nM at full-length human PLD2 and 24 nM on full-length human PLD1.

Take `CNC(=O)C(=O)N[C@@H](C)C[C@H]1CC[C@]2(CC1)OC(=O)NN=C2c1cnc(N2C[C@@H]3C[C@H]2CO3)cc1Cl` [Example 244]: the IC50 at full-length human PLD2 is less than 10 nM; on full-length human PLD1, 19 nM.

With `C[C@@H](C[C@H]1CC[C@]2(CC1)OC(=O)NN=C2c1ccc(F)cc1I)NC(=O)NC1CC1` [Example 245], the IC50 was 107 nM on full-length human PLD2 and 40 nM at full-length human PLD1.

`CNC(=O)C(=O)N[C@@H](C)C[C@H]1CC[C@]2(CC1)OC(=O)NN=C2c1cnc(N2CC3CCC(C2)O3)cc1Cl` [Example 246]: the figures for the IC50 at full-length human PLD2 and on full-length human PLD1 were less than 10 nM and 15 nM, respectively.

For `Cc1cc(C(=O)N[C@@H](C)C[C@H]2CC[C@]3(CC2)OC(=O)NN=C3c2cnc(N3CC4CCC(C3)O4)cc2Cl)[nH]n1` [Example 247], the 50% inhibitory concentration (IC50) at full-length human PLD2 was less than 10 nM; on full-length human PLD1 it was 14 nM.

On to `CNC(=O)C(=O)N[C@@H](C)C[C@H]1CC[C@]2(CC1)OC(=O)NN=C2c1cnc(N2CCC(F)(F)C2)cc1C` [Example 248], for which the IC50 at full-length human PLD2 is less than 10 nM; at full-length human PLD1, 17 nM.

On to `Cc1cc(C(=O)N[C@@H](C)C[C@H]2CC[C@]3(CC2)OC(=O)NN=C3c2cnc(N3C[C@H]4C[C@@H]3CO4)cc2C)[nH]n1` [Example 249], for which the IC50 at full-length human PLD2 was less than 10 nM; at full-length human PLD1, 25 nM.

`Cc1cc(C(=O)N[C@@H](C)C[C@H]2CC[C@]3(CC2)OC(=O)NN=C3c2cnc(N3C[C@@H]4C[C@H]3CO4)cc2C)[nH]n1` [Example 250]: the figures for the IC50 on full-length human PLD2 and on full-length human PLD1 were less than 10 nM and 22 nM, respectively.

For the compound `Cc1cc(C(=O)N[C@@H](C)C[C@H]2CC[C@]3(CC2)OC(=O)NN=C3c2cnc(N3CC4CCC(C3)O4)cc2C)[nH]n1` [Example 251], the results for the IC50 at full-length human PLD2 and at full-length human PLD1 were less than 10 nM and 17 nM, respectively.

With `Cc1ccc(C(=O)N[C@@H](C)C[C@H]2CC[C@]3(CC2)OC(=O)NN=C3c2ccc(F)cc2Br)nn1` [Example 252], the values for the IC50 at full-length human PLD2 and on full-length human PLD1 were 335 nM and 174 nM, respectively.

For `Cc1cnc(C(=O)N[C@@H](C)C[C@H]2CC[C@]3(CC2)OC(=O)NN=C3c2ccc(F)cc2Br)cn1` [Example 253], the results for the IC50 on full-length human PLD2 and on full-length human PLD1 were 324 nM and 252 nM, respectively.

On to `C[C@@H](CN1CCC2(CC1)OC(=O)NN=C2c1ccc(F)cc1Br)NC(=O)c1cnn(C)c1` [Example 254], for which the IC50 is less than 10 nM on full-length human PLD2 and 29 nM on full-length human PLD1.

`C[C@@H](CN1CCC2(CC1)OC(=O)NN=C2c1ccc(F)cc1Br)NC(=O)c1cnn(C(F)(F)F)c1` [Example 255]: the values for the half-inhibitory concentration (IC50) at full-length human PLD2 and on full-length human PLD1 were 14 nM and 32 nM, respectively.

On to `CNC(=O)C(=O)N[C@@H](C)C[C@H]1CC[C@]2(CC1)OC(=O)NN=C2c1cc(N2CCOCC2)ccc1C` [Example 256], for which the IC50 on full-length human PLD2 is less than 10 nM; on full-length human PLD1 it was 27 nM.

Turning to `COc1cc(C)c(C2=NNC(=O)O[C@]23CC[C@@H](C[C@H](C)NC(=O)N2CCn4ncnc4C2)CC3)cn1` [Example 257], the half-maximal inhibitory concentration (IC50) at full-length human PLD2 worked out at 215 nM; on full-length human PLD1, 262 nM.

Take `COc1cc(C)c(C2=NNC(=O)O[C@]23CC[C@@H](C[C@H](C)NC(=O)N2CCc4cccnc4C2)CC3)cn1` [Example 258]: the IC50 came to 249 nM on full-length human PLD2 and 186 nM on full-length human PLD1.

`COc1cc(C)c(C2=NNC(=O)O[C@]23CC[C@@H](C[C@H](C)NC(=O)N2CCn4c(nnc4C(F)(F)F)C2)CC3)cn1` [Example 259]: the IC50 on full-length human PLD2 came out at 2500 nM; at full-length human PLD1, 1450 nM.

On to `COc1cc(C)c(C2=NNC(=O)O[C@]23CC[C@@H](C[C@H](C)NC(=O)N2CCc4nocc4C2)CC3)cn1` [Example 260], for which the concentration for half-maximal inhibition (IC50) was less than 10 nM on full-length human PLD2 and 31 nM at full-length human PLD1.

With `COc1cc(C)c(C2=NNC(=O)O[C@]23CC[C@@H](C[C@H](C)NC(=O)NCc2ccccn2)CC3)cn1` [Example 261], the IC50 is 313 nM at full-length human PLD2 and 168 nM at full-length human PLD1.

For the compound `COc1cc(C)c(C2=NNC(=O)O[C@]23CC[C@@H](C[C@H](C)NC(=O)OCc2ccccc2)CC3)cn1` [Example 262], the half-inhibitory concentration (IC50) at full-length human PLD2 is less than 10 nM; on full-length human PLD1 it was 15 nM.

Turning to `COc1cc(C)c(C2=NNC(=O)O[C@]23CC[C@@H](C[C@H](C)NC(=O)CC#N)CC3)cn1` [Example 263], the figures for the concentration for half-maximal inhibition (IC50) on full-length human PLD2 and on full-length human PLD1 were 4500 nM and 2780 nM, respectively.

With `COc1cc(C)c(C2=NNC(=O)O[C@]23CC[C@@H](C[C@H](C)NC(=O)N2CCc4ncccc4C2)CC3)cn1` [Example 264], the IC50 on full-length human PLD2 was less than 10 nM; on full-length human PLD1, 36 nM.

In the case of `CNC(=O)C(=O)N[C@@H](C)C[C@H]1CC[C@]2(CC1)OC(=O)NN=C2c1cnc(C2CC2)cc1Cl` [Example 265], the figures for the half-inhibitory concentration (IC50) on full-length human PLD2 and on full-length human PLD1 were less than 10 nM and 13 nM, respectively.

Regarding `Cc1cc(C(=O)N[C@@H](C)C[C@H]2CC[C@]3(CC2)OC(=O)NN=C3c2cnc(C3CC3)cc2Cl)[nH]n1` [Example 266], the IC50 at full-length human PLD2 was less than 10 nM; at full-length human PLD1 it was 15 nM.

Consider `CNC(=O)C(=O)N[C@@H](C)C[C@H]1CC[C@]2(CC1)OC(=O)NN=C2c1cnc(N2C[C@H]3C[C@@H]2CO3)cc1C` [Example 267], for which the half-maximal inhibitory concentration (IC50) on full-length human PLD2 is less than 10 nM; on full-length human PLD1 it was 26 nM.

Consider `CNC(=O)C(=O)N[C@@H](C)C[C@H]1CC[C@]2(CC1)OC(=O)NN=C2c1cnc(N2C[C@@H]3C[C@H]2CO3)cc1C` [Example 268], for which the 50% inhibitory concentration (IC50) is less than 10 nM at full-length human PLD2 and 30 nM on full-length human PLD1.

Turning to `CNC(=O)C(=O)N[C@@H](C)C[C@H]1CC[C@]2(CC1)OC(=O)NN=C2c1cnc(N2CC3CCC(C2)O3)cc1C` [Example 269], the concentration for half-maximal inhibition (IC50) is less than 10 nM at full-length human PLD2 and 18 nM on full-length human PLD1.

For the compound `C[C@@H](C[C@H]1CC[C@]2(CC1)OC(=O)NN=C2c1ccc(C#N)cc1Br)NC(=O)N1CCn2nccc2C1` [Example 270], the IC50 at full-length human PLD2 was less than 10 nM; at full-length human PLD1, 17 nM.

Consider `C[C@@H](C[C@H]1CC[C@]2(CC1)OC(=O)NN=C2c1ccc(C#N)cc1Br)NC(=O)N1CCn2nncc2C1` [Example 271], for which the half-inhibitory concentration (IC50) is less than 10 nM at full-length human PLD2 and 18 nM at full-length human PLD1.

Turning to `Cc1cc(C(=O)N[C@@H](C)C[C@H]2CC[C@]3(CC2)OC(=O)NN=C3c2cc(C#N)ccc2Br)[nH]n1` [Example 272], the concentration for half-maximal inhibition (IC50) on full-length human PLD2 was less than 10 nM; at full-length human PLD1, 15 nM.

As for `Cc1cc(C(=O)N[C@@H](C)C[C@H]2CC[C@]3(CC2)OC(=O)NN=C3c2cnc(N3CC(F)(F)C3)cc2C)[nH]n1` [Example 273], the IC50 was less than 10 nM at full-length human PLD2 and 19 nM at full-length human PLD1.

In the case of `CNC(=O)C(=O)N[C@@H](C)C[C@H]1CC[C@]2(CC1)OC(=O)NN=C2c1cnc(N2CCC(F)(F)CC2)cc1Cl` [Example 274], the IC50 at full-length human PLD2 was less than 10 nM; at full-length human PLD1, 17 nM.

Regarding `C[C@@H](C[C@H]1CC[C@]2(CC1)OC(=O)NN=C2c1cnc(N2CCOCC2)cc1Cl)NC(=O)N1CCn2nccc2C1` [Example 275], the IC50 on full-length human PLD2 is less than 10 nM; at full-length human PLD1, 25 nM.

Regarding `Cc1cc(Cl)c(C2=NNC(=O)O[C@]23CC[C@@H](C[C@H](C)NC(=O)N2CCn4nccc4C2)CC3)cn1` [Example 276], the IC50 at full-length human PLD2 was less than 10 nM; on full-length human PLD1, 21 nM.

For `C[C@@H](C[C@H]1CC[C@]2(CC1)OC(=O)NN=C2c1cnc(C2CC2)cc1Cl)NC(=O)N1CCn2nccc2C1` [Example 277], the IC50 is less than 10 nM on full-length human PLD2 and 17 nM at full-length human PLD1.

What is called IC50 is the midpoint of a concentration-inhibition curve.

These data come from US20240101572A1, “DIHYDROOXADIAZINONE COMPOUND AND PHARMACEUTICAL USE THEREOF” (Japan Tobacco Inc., priority 2022, published 2024).
